Test results from patent US11780893B2, “Kv1.3 blockers” (Zealand Pharma A/S, priority 2019, dated 2023).
Bridge positions count the residues as written; N and C are the ends. Square brackets hold non-standard residues; d marks the D form. Peptide text beside a SMILES is read from it. Nle = CCCC[C@H](N)C(=O)O

Biological target: T1, human Kv1.3 voltage-gated K+ channel (Homo sapiens, UniProt P22001)
T1 construct: host or cells: CHO-DUKX
Assay: cell-based
Conditions: inhibition of thallium flux, CHO-DUKX cells with human Kv1.3; read-out: IC50

T1 sequence (P22001 whole entry): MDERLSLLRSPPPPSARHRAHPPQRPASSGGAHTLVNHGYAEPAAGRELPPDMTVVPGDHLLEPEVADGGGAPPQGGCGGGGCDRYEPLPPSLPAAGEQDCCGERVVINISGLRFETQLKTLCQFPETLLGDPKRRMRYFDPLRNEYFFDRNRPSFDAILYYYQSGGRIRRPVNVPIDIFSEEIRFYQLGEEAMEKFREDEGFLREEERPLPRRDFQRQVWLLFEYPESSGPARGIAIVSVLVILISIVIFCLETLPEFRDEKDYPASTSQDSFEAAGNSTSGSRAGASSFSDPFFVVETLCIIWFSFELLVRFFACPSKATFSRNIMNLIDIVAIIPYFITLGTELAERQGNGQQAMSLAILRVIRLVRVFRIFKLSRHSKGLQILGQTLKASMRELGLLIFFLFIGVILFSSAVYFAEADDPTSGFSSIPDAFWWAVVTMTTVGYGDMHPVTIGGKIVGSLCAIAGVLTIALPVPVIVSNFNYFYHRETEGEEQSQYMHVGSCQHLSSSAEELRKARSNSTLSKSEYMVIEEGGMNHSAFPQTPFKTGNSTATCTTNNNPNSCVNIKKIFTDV

SMILES	IC50
CCCC[C@H](NC(=O)[C@@H]1CCCN1)C(=O)N[C@@H](CCC(=O)O)C(=O)N[C@@H](CCCC)C(=O)N[C@@H](CCCNC(=N)N)C(=O)N[C@H]1CSSC[C@@H]2NC(=O)[C@H](CCCCN)NC(=O)CNC(=O)[C@H](Cc3ccccc3)NC(=O)[C@H]([C@@H](C)CC)NC(=O)[C@H](CO)NC(=O)CNC(=O)[C@H]([C@@H](C)CC)NC(=O)[C@H](C)NC(=O)[C@H](C)NC(=O)[C@H](CC(C)C)NC(=O)[C@@H]3CSSC[C@@H](C(=O)N[C@@H](Cc4ccc(O)cc4)C(=O)N4CCC[C@H]4C(=O)N[C@@H](CCCNC(=N)N)C(=O)N[C@@H](CCCCN)C(=O)N[C@@H](CO)C(=O)O)NC(=O)[C@H](CCCCN)NC(=O)[C@H](CSSC[C@H](NC(=O)[C@H](CCC(=O)O)NC(=O)[C@H](C(C)C)NC(=O)[C@H](CO)NC(=O)[C@H](C)NC(=O)[C@H](CO)NC1=O)C(=O)N[C@@H](CCCCN)C(=O)N[C@@H](CCC(N)=O)C(=O)N[C@@H](CCCCN)C(=O)N3)NC(=O)[C@H](CCCCN)NC(=O)[C@H](CCCCN)NC(=O)[C@H](CC(N)=O)NC(=O)[C@H](CCCC)NC2=O [Compound 127] (H-P[Nle]E[Nle]RCSASVECKQKCLAAIGSIFGKC[Nle]NKKCKCYPRKS-OH; disulfide 6-27, 12-32, 16-34)	0.562 nM
CCCC[C@H](NC(=O)[C@H](CC(=O)O)NC(=O)[C@H](CCSC)NC(=O)[C@@H](N)CC(N)=O)C(=O)N[C@@H](CCCNC(=N)N)C(=O)N[C@H]1CSSC[C@@H]2NC(=O)[C@H](CCCCN)NC(=O)CNC(=O)[C@H](Cc3ccccc3)NC(=O)[C@H]([C@@H](C)CC)NC(=O)[C@H](CO)NC(=O)CNC(=O)[C@H]([C@@H](C)CC)NC(=O)[C@H](C)NC(=O)[C@H](CCCCN)NC(=O)[C@H](CC(C)C)NC(=O)[C@@H]3CSSC[C@@H](C(=O)N[C@@H](Cc4ccc(O)cc4)C(=O)N4CCC[C@H]4C(=O)N[C@@H](CCCNC(=N)N)C(N)=O)NC(=O)[C@H](CCCCN)NC(=O)[C@H](CSSC[C@H](NC(=O)[C@H](CCC(=O)O)NC(=O)[C@H](C(C)C)NC(=O)[C@H](CO)NC(=O)[C@H](C)NC(=O)[C@H](CO)NC1=O)C(=O)N[C@@H](CCCCN)C(=O)N[C@@H](CCC(N)=O)C(=O)N[C@@H](CCCCN)C(=O)N3)NC(=O)[C@H](CCCCN)NC(=O)[C@H](CCCCN)NC(=O)[C@H](CC(N)=O)NC(=O)[C@H](CCSC)NC2=O [Compound 15] (H-NMD[Nle]RCSASVECKQKCLKAIGSIFGKCMNKKCKCYPR-NH2; disulfide 6-27, 12-32, 16-34)	0.12 nM
CC[C@H](C)[C@@H]1NC(=O)[C@H](CO)NC(=O)CNC(=O)[C@H](CCC(=O)O)NC(=O)[C@H](C)NC(=O)[C@H](CCCCN)NC(=O)[C@H](CC(C)C)NC(=O)[C@@H]2CSSC[C@@H](C(=O)N[C@@H](Cc3ccc(O)cc3)C(=O)N3CCC[C@H]3C(=O)N[C@@H](CCCNC(=N)N)C(N)=O)NC(=O)[C@H](CCCCN)NC(=O)[C@@H]3CSSC[C@H](NC(=O)[C@H](CCC(=O)O)NC(=O)[C@H](C(C)C)NC(=O)[C@H](CO)NC(=O)[C@H](C)NC(=O)[C@H](CO)NC(=O)[C@@H](NC(=O)[C@H](CCCNC(=N)N)NC(=O)[C@H](CCSC)NC(=O)[C@H](CC(=O)O)NC(=O)[C@H](CCSC)NC(=O)[C@@H](N)CC(N)=O)CSSC[C@H](NC(=O)[C@H](CCCCN)NC(=O)CNC(=O)[C@H](Cc4ccccc4)NC1=O)C(=O)N[C@@H](CCSC)C(=O)N[C@@H](CC(N)=O)C(=O)N[C@@H](CCCCN)C(=O)N[C@@H](CCCCN)C(=O)N3)C(=O)N[C@@H](CCCCN)C(=O)N[C@@H](CCC(N)=O)C(=O)N[C@@H](CCCCN)C(=O)N2 [Compound 59] (H-NMDMRCSASVECKQKCLKAEGSIFGKCMNKKCKCYPR-NH2; disulfide 6-27, 12-32, 16-34)	0.035 nM
CCCC[C@H](NC(=O)[C@H](CC(=O)O)NC(=O)[C@H](CCCC)NC(=O)[C@@H](N)CO)C(=O)N[C@@H](CCCNC(=N)N)C(=O)N[C@H]1CSSC[C@@H]2NC(=O)[C@H](CCCCN)NC(=O)CNC(=O)[C@H](Cc3ccccc3)NC(=O)[C@H]([C@@H](C)CC)NC(=O)[C@H](CO)NC(=O)CNC(=O)[C@H]([C@@H](C)CC)NC(=O)[C@H](C)NC(=O)CNC(=O)[C@H](CC(C)C)NC(=O)[C@@H]3CSSC[C@@H](C(=O)N[C@@H](Cc4ccc(O)cc4)C(=O)N4CCC[C@H]4C(=O)N[C@@H](CCCNC(=N)N)C(N)=O)NC(=O)[C@H](CCCCN)NC(=O)[C@H](CSSC[C@H](NC(=O)[C@H](CCC(=O)O)NC(=O)[C@H](C(C)C)NC(=O)[C@H](CO)NC(=O)[C@H](C)NC(=O)[C@H](CO)NC1=O)C(=O)N[C@@H](CCCCN)C(=O)N[C@@H](CCC(N)=O)C(=O)N[C@@H](CCCCN)C(=O)N3)NC(=O)[C@H](CCCCN)NC(=O)[C@H](CCCCN)NC(=O)[C@H](CC(N)=O)NC(=O)[C@H](CCSC)NC2=O [Compound 77] (H-S[Nle]D[Nle]RCSASVECKQKCLGAIGSIFGKCMNKKCKCYPR-NH2; disulfide 6-27, 12-32, 16-34)	0.13 nM
CC[C@H](C)[C@@H]1NC(=O)[C@H](C)NC(=O)[C@H](CC(=O)O)NC(=O)[C@H](CCCCN)NC(=O)[C@@H]2CSSC[C@@H](C(=O)N[C@@H](Cc3ccc(O)cc3)C(=O)N3CCC[C@H]3C(=O)N[C@@H](CCCNC(=N)N)C(=O)O)NC(=O)[C@H](CCCCN)NC(=O)[C@@H]3CSSC[C@H](NC(=O)[C@H](CCC(=O)O)NC(=O)[C@H](C(C)C)NC(=O)[C@H](CO)NC(=O)[C@H](C)NC(=O)[C@H](CO)NC(=O)[C@@H](NC(=O)[C@H](CCCNC(=N)N)NC(=O)[C@H](CCSC)NC(=O)[C@H](CC(=O)O)NC(=O)[C@H](CCSC)NC(=O)[C@@H](N)CC(N)=O)CSSC[C@H](NC(=O)[C@H](CCCCN)NC(=O)CNC(=O)[C@H](Cc4ccccc4)NC(=O)[C@H]([C@@H](C)CC)NC(=O)[C@H](CO)NC(=O)CNC1=O)C(=O)N[C@@H](CCSC)C(=O)N[C@@H](CC(N)=O)C(=O)N[C@@H](CCCCN)C(=O)N[C@@H](CCCCN)C(=O)N3)C(=O)N[C@@H](CCCCN)C(=O)N[C@@H](CCC(N)=O)C(=O)N[C@@H](CCCCN)C(=O)N2 [Compound 10] (H-NMDMRCSASVECKQKCKDAIGSIFGKCMNKKCKCYPR-OH; disulfide 6-27, 12-32, 16-34)	0.57 nM
CCCC[C@H](NC(=O)[C@@H]1CCCN1)C(=O)N[C@@H](CCC(=O)O)C(=O)N[C@@H](CCCC)C(=O)N[C@@H](CCCNC(=N)N)C(=O)N[C@H]1CSSC[C@@H]2NC(=O)[C@H](CCCCN)NC(=O)CNC(=O)[C@H](Cc3ccccc3)NC(=O)[C@H]([C@@H](C)CC)NC(=O)[C@H](CO)NC(=O)CNC(=O)[C@H]([C@@H](C)CC)NC(=O)[C@H](C)NC(=O)[C@H](C)NC(=O)[C@H](CC(C)C)NC(=O)[C@@H]3CSSC[C@@H](C(=O)N[C@@H](Cc4ccc(O)cc4)C(=O)N4CCC[C@H]4C(=O)N[C@@H](CCCNC(=N)N)C(=O)N[C@@H](Cc4ccc(O)cc4)C(=O)O)NC(=O)[C@H](CCCCN)NC(=O)[C@H](CSSC[C@H](NC(=O)[C@H](CCC(=O)O)NC(=O)[C@H](C(C)C)NC(=O)[C@H](CO)NC(=O)[C@H](C)NC(=O)[C@H](CO)NC1=O)C(=O)N[C@@H](CCCCN)C(=O)N[C@@H](CCC(N)=O)C(=O)N[C@@H](CCCCN)C(=O)N3)NC(=O)[C@H](CCCCN)NC(=O)[C@H](CCCCN)NC(=O)[C@H](CC(N)=O)NC(=O)[C@H](CCCC)NC2=O [Compound 123] (H-P[Nle]E[Nle]RCSASVECKQKCLAAIGSIFGKC[Nle]NKKCKCYPRY-OH; disulfide 6-27, 12-32, 16-34)	1.04 nM
